The text below walks through data of ChEMBL document CHEMBL4350975, “Assessment of quinazolinone derivatives as novel non-nucleoside hepatitis B virus inhibitors” (Eur J Med Chem, 2019).

Each structure is given as a SMILES string.

A short description of series [1]: Cytotoxicity against human HepG2.2.15 cells assessed as cell viability measured after 72 hrs by MTT assay. In kind it is cell-based, HepG2 2.2.15.
Series [2] addresses Core antigen (Hepatitis B virus) (UniProt Q03732). The series is described as follows: Inhibition of capsid protein in wild type Hepatitis B virus infected in human HepG2.2.15 cells assessed as reduction of viral DNA level at 4 uM measured after 72 hrs by PCR analysis relative to control. In kind it is cell-based.
Series [3] shares this target. The series is described as follows: Inhibition of capsid protein in lamivudine/entecavir-resistant Hepatitis B virus harboring rtL180M/rtM204V/rt184L mutant infected in human HepG2.2.15 cells assessed as reduction in viral DNA level at 4 uM measured after 72 hrs by PCR analysis relative to control. In kind it is cell-based.
Series [4] shares this target. The series is described as follows: Inhibition of capsid protein in Hepatitis B virus infected in human HepG2.2.15 cells assessed as reduction in viral DNA level supplemented with fresh medium containing compound every 2 days and measured after 6 days by RT-PCR analysis relative to control. More on the design: concentration or dose not given beside the values. The conditions noted are these: concentration not given here. The class given is cell-based.

Series [5] is described as follows: Selectivity index, ratio of CC50 for human HepG2.2.15 cells to IC50 for capsid protein in Hepatitis B virus infected in human HepG2.2.15 cells assessed as reduction in viral DNA level. In kind it is toxicity, cell-based. The note with it: read-out: Ratio CC50/IC50.
Series [6] in a line: Selectivity index, ratio of CC50 for human HepG2.2.15 cells to IC50 for capsid protein in lamivudine/entecavir-resistant Hepatitis B virus harboring rtL180M/rtM204V/rt184L mutant infected in human HepG2.2.15 cells assessed as reduction in viral DNA level. The class given is toxicity, cell-based. The note with it: read-out: Ratio CC50/IC50.
Series [7] deals with Core antigen (Hepatitis B virus) (UniProt Q03732). Kind of series: Inhibition of capsid protein in wild type Hepatitis B virus infected in human HepG2.2.15 cells assessed as reduction in viral DNA level at 100 uM measured after 72 hrs by PCR analysis relative to control. In kind it is cell-based.
The target is the same in series [8]. Kind of series: Inhibition of capsid protein in lamivudine/entecavir-resistant Hepatitis B virus harboring rtL180M/rtM204V/rt184L mutant infected in human HepG2.2.15 cells assessed as reduction in viral DNA level at 100 uM measured after 72 hrs by PCR analysis relative to control. The class given is cell-based.
Series [9] shares this target. The series is described as follows: Inhibition of capsid protein in wild type Hepatitis B virus infected in human HepG2.2.15 cells assessed as reduction of viral DNA level at 10 uM measured after 72 hrs by PCR analysis relative to control. The class given is cell-based.
The target is the same in series [10]. The series is described as follows: Inhibition of capsid protein in lamivudine/entecavir-resistant Hepatitis B virus harboring rtL180M/rtM204V/rt184L mutant infected in human HepG2.2.15 cells assessed as reduction in viral DNA level at 10 uM measured after 72 hrs by PCR analysis relative to control. The class given is cell-based.

Sequence of Core antigen (Hepatitis B virus) (Q03732 as listed by the source): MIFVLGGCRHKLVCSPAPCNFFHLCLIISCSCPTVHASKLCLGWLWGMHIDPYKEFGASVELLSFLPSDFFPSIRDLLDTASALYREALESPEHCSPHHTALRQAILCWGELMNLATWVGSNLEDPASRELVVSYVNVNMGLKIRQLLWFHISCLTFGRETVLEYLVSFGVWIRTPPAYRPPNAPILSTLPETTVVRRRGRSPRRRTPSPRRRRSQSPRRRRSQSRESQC

By CC50 is commonly meant the concentration that lowers cell viability or growth by half. In general, inhibition refers to the share of the control response that was lost under treatment. For the molecule `CN(C)CCOc1ccc2nc(SCc3ccccc3)n(Cc3cccs3)c(=O)c2c1`, in series [1], the CC50 at 72 h lay within 21.1 to 26.7 µM. Moreover, the inhibition in series [2] turned out to be 82%; in series [3], 80.9%; in series [4], 83.3%. Besides, the selectivity ratio is 13.7 in series [5] and 14.1 in series [6].
On to `COc1ccc(C(C)=O)cc1CSc1nc2ccc(O)cc2c(=O)n1Cc1cccs1`, for which, in series [1], the CC50 at 72 h was more than 100 µM. Also, the inhibition in series [4] was 3.26%.
Regarding `COc1ccccc1CSc1nc2ccccc2c(=O)n1Cc1cccs1`, the CC50 at 72 h in [1] is more than 100 µM. The inhibition in series [4] is 76.3%. In addition, the selectivity ratio in [5] is more than 35.6.
`Nc1ccn([C@@H]2CS[C@H](CO)O2)c(=O)n1` [LAMIVUDINE]: the results for the inhibition in series [7], in series [8] and in series [4] were 90.7%, 17.7% and 94.3%, respectively. Besides, the CC50 at 72 h in series [1] is more than 100 µM. Further, the selectivity ratio is more than 1000 in series [5] and less than 1 in series [6].
Consider `COc1ccccc1CSc1nc2ccc(Cl)cc2c(=O)n1Cc1cccs1`, for which the CC50 at 72 h in [1] was more than 100 µM. Moreover, the inhibition in [4] was 63.3%.
The matching figures for `COc1ccc(C(C)=O)cc1CSc1nc2ccc(F)cc2c(=O)n1Cc1cccs1`: 89 µM and 30.7%.
Take `COc1ccccc1CSc1nc2ccc(F)cc2c(=O)n1Cc1cccs1`: in series [1], the CC50 at 72 h is more than 100 µM. The inhibition in series [4] stood at 79.6%. Further, in [5], the selectivity ratio was more than 40.5.
Consider `O=c1c2cc(O)ccc2nc(SCc2ccccc2)n1Cc1cccs1`, for which the CC50 at 72 h in series [1] is more than 100 µM. In addition, the inhibition in [4] was 5.62%.
For the molecule `COc1ccc(C(C)=O)cc1CSc1nc2ccc(Cl)cc2c(=O)n1Cc1cccs1`, the CC50 at 72 h in [1] stood at 74.6 µM. In addition, the inhibition in series [4] was determined as 40.7%.
The matching figures for `COc1ccccc1CSc1nc2ccc(I)cc2c(=O)n1Cc1cccs1`: more than 100 µM and 65.9%.
On the same counts, the results for `O=c1c2cc(I)ccc2nc(SCc2ccccc2)n1Cc1cccs1` are more than 100 µM and 1.87%.
The matching figures for `COc1ccc(C(C)=O)cc1CSc1nc2ccc(I)cc2c(=O)n1Cc1cccs1`: 81.1 µM and 45.4%.
With `CCN(CC)CCOc1ccc2nc(SCc3ccccc3)n(Cc3cccs3)c(=O)c2c1`, the CC50 at 72 h in [1] lay within 15.8 to 18 µM. Also, the inhibition in [2] was determined as 96.1%; in [3], 94%; in [4], 98.4%. For the same molecule, the selectivity ratio in [5] amounted to 22.2; in [6], 21.4.
Regarding `O=c1c2ccccc2nc(SCc2ccccc2)n1Cc1cccs1`, the CC50 at 72 h in series [1] was more than 100 µM. The inhibition in series [4] was determined as 11%.
The matching figures for `COc1ccc(C(C)=O)cc1CSc1nc2ccc(Br)cc2c(=O)n1Cc1cccs1`: more than 100 µM and 46%.
The matching figures for `Cc1ccc2nc(SCc3ccccc3)n(Cc3cccs3)c(=O)c2c1`: more than 100 µM and 13.8%.
As to `O=c1c2cc(F)ccc2nc(SCc2ccccc2)n1Cc1cccs1`, in series [1], the CC50 at 72 h was more than 100 µM. For the same molecule, in [4], the inhibition was found to be 9.53%.
On to `CCN(CC)CCOc1ccc2nc(SCc3ccccc3OC)n(Cc3cccs3)c(=O)c2c1`, for which the CC50 at 72 h in series [1] was 10.1 µM. For the same molecule, in [4], the inhibition amounted to 76%. Further, the selectivity ratio in series [5] is 5.25.
On to `COc1ccccc1CSc1nc2ccc(O)cc2c(=O)n1Cc1cccs1`, for which the CC50 at 72 h in series [1] is more than 100 µM. In addition, the inhibition in series [4] was 0.59%.
On the same counts, the results for `COc1ccccc1CSc1nc2ccc(C)cc2c(=O)n1Cc1cccs1` are more than 100 µM and 69.4%.
The matching figures for `COc1ccc(C(C)=O)cc1CSc1nc2ccc(C)cc2c(=O)n1Cc1cccs1`: more than 100 µM and 56.1%.
On the same counts, the results for `COc1ccccc1CSc1nc2ccc(Br)cc2c(=O)n1Cc1cccs1` are more than 100 µM and 64.2%.
Regarding `O=c1c2cc(Cl)ccc2nc(SCc2ccccc2)n1Cc1cccs1`, the CC50 at 72 h in [1] is more than 100 µM. In series [4], the inhibition was 16.1%.
The matching figures for `COc1ccccc1CSc1nc2ccc(OCCN(C)C)cc2c(=O)n1Cc1cccs1`: 14.7 µM and 53.9%.
In the case of `CCN(CC)CCOc1ccc2nc(SCc3cc(C(C)=O)ccc3OC)n(Cc3cccs3)c(=O)c2c1`, the CC50 at 72 h in series [1] is 8.76 µM. Moreover, in series [4], the inhibition is 42%.
The matching figures for `COc1ccc(C(C)=O)cc1CSc1nc2ccc(OCCN(C)C)cc2c(=O)n1Cc1cccs1`: 18 µM and 33.9%.
Regarding `O=c1c2cc(Br)ccc2nc(SCc2ccccc2)n1Cc1cccs1`, the CC50 at 72 h in series [1] is more than 100 µM. Besides, in series [4], the inhibition worked out at 16.7%.
With `COc1ccc(C(C)=O)cc1CSc1nc2ccccc2c(=O)n1Cc1cccs1`, the CC50 at 72 h in series [1] is 71.5 µM. Also, the inhibition in series [4] turned out to be 47.1%. Further, the selectivity ratio in series [5] is 17.6.
Consider `C=C1[C@H](CO)[C@@H](O)C[C@@H]1n1cnc2c(=O)[nH]c(N)nc21`, for which the inhibition amounted to 98.1% in [9] and 22.6% in series [10].
